Measured values: patent US5527820A, “Antibiotics having immunosuppressive activity, delaminomycins and processes for the production of the same” (priority 1992, dated 1996)
Values after ≈ are worked out from the molar mass of the structure shown.

Experiments:
[1] = test system: delayed-type hypersensitivity (DTH); assay: Suppressive effect on delayed-type hypersensitivity (DTH) in mouse, oral; format: in vivo, mouse (CDF1); details: oral once a day, 0~4th day
Method: CDF1 mice were immunized by intravenously injecting sheep red blood cells (10^5 cells/mouse). On the 4th day after the immunization, sheep red blood cells (10^8 cells/mouse) were subcutaneously injected into the footpad of mice for the elicitation to cause a delayed-type hypersensitivity. Test compound was orally administered to the mice once a day from the 0 th day to the 4 th day after the immunization. On the 5th day after the elicitation, the thickness of the mouse footpad was measured to estimate the suppressive effect of the test compound on DTH. The suppressive effect of the test compound was evaluated in terms of the inhibition rate (%) as calculated according to the following equation:
Inhibition rate (%)=100-(T/C×100)
wherein T denotes the thickness of the footpad when the test compound was administered, but C denotes the thickness of the footpad when no test compounnd was administered.

[2] = test system: spleen cells (T cells activated by Concanavalin A); assay: Inhibitory activity against blastogenesis and proliferation of spleen cells caused by mitogen (Con A); format: cell-based, mouse (CDF1)
[3] = test system: nylon wool-passed cells of spleen cells (responder cell; T cells); assay: Inhibitory activity to the mixed lymphocyte culture reaction; format: cell-based, rat (Fischer F344 responder; WKY stimulator)
Mouse leukemia L-1210 = assay: Inhibitory activity on proliferation of cancer cells; format: cell-based; details: L1210
Gram-positive bacteria = assay: Antibacterial activity to Gram-positive bacteria; format: cell-based; details: result in words
Description: Delaminomycins A, B, C, A2, B2 and C2 according to this invention further have an antibacterial activity against a variety of bacteria. The minimum growth inhibitory concentrations (MIC) (μg/ml) of the novel antibiotics of this invention on various bacteria and fungi as measured by the agar plate dilution method are shown in Table 5a, Table 5b, Table 5c and Table 5d below.

Solubility = details: result in words
[4] = Absorption into the digestive tracts on oral administration; details: result in words

Compound: CCC(OS(=O)(=O)O)C(C)/C=C/C=C/C1CC2C=CC3CC(C)CC(C)C3C2(C)C(=O)C12C(=O)NC(O)C2=O (stereo not drawn)
- Inhibition rate (DTH footpad thickness) ([1]; 0.5 mg/mouse): -0.7%
- Inhibition rate (DTH footpad thickness) ([1]; 2.0 mg/mouse): 56.3%
- Inhibition rate (DTH footpad thickness) ([1]; 8.0 mg/mouse): 85.2%

Compound: CCC(OS(=O)(=O)O)C(C)/C=C/C=C/C1CC2C=CC3CC(C)CC(C)C3C2(C)C(=O)C12C(=O)NC(OC)C2=O (stereo not drawn)
- Inhibition rate (DTH footpad thickness) ([1]; 2.0 mg/mouse): 40.2%

Compound: CCC(OS(=O)(=O)O)C(C)/C=C/C=C/C1CC2C=CC3CC(C)CC(C)C3C2(C)C(=O)C12C(=O)CNC2=O (stereo not drawn)
- Inhibition rate (DTH footpad thickness) ([1]; 2.0 mg/mouse): 35.4%

Compound: CCC(O)C(C)/C=C/C=C/C1CC2C=CC3CC(C)CC(C)C3C2(C)C(=O)C12C(=O)CNC2=O (stereo not drawn) [Delaminomycin C2]
- IC50 ([2]; Mus musculus, T-cell, read-out: IC50 (inhibition of blastogenesis and proliferation of spleen lymphocyte caused by Con A)): 1.6 µg/mL (≈ 3.42 µM)
- inhibition at 0.1 µg/mL ([2]; Mus musculus, T-cell, 0.1 μg/ml test compound, read-out: Inhibition rate): 0%
- inhibition at 0.39 µg/mL ([2]; Mus musculus, T-cell, 0.39 μg/ml test compound, read-out: Inhibition rate): 0%
- inhibition at 1.56 µg/mL ([2]; Mus musculus, T-cell, 1.56 μg/ml test compound, read-out: Inhibition rate): 49%
- inhibition at 6.25 µg/mL ([2]; Mus musculus, T-cell, 6.25 μg/ml test compound, read-out: Inhibition rate): 84%
- inhibition at 25 µg/mL ([2]; Mus musculus, T-cell, 25 μg/ml test compound, read-out: Inhibition rate): 85%
- inhibition at 100 µg/mL ([2]; Mus musculus, T-cell, 100 μg/ml test compound, read-out: Inhibition rate): 93%
- activity inhibitory to the reaction of proliferation of mouse spleen cells activated with Concanavalin A ([2]; in vitro, result in words): exhibit an activity inhibitory to the reaction of proliferation of mouse spleen cells
- inhibition at 0.1 µg/mL ([3]; Rattus norvegicus, T-cell, 0.10 μg/ml test compound, read-out: Inhibition rate): -7%
- inhibition at 0.39 µg/mL ([3]; Rattus norvegicus, T-cell, 0.39 μg/ml test compound, read-out: Inhibition rate): -6%
- inhibition at 1.56 µg/mL ([3]; Rattus norvegicus, T-cell, 1.56 μg/ml test compound, read-out: Inhibition rate): 1%
- inhibition at 6.25 µg/mL ([3]; Rattus norvegicus, T-cell, 6.25 μg/ml test compound, read-out: Inhibition rate): -1%
- inhibition at 25 µg/mL ([3]; Rattus norvegicus, T-cell, 25 μg/ml test compound, read-out: Inhibition rate): 29%
- inhibition at 100 µg/mL ([3]; Rattus norvegicus, T-cell, 100 μg/ml test compound, read-out: Inhibition rate): 99%
- IC50 ([3]; Rattus norvegicus, T-cell, 120 hours, 3H-thymidine incorporation, read-out: IC50 (inhibition of mixed lymphocyte culture reaction)): 37.9 µg/mL (≈ 81 µM)
- activity to inhibit the proliferation of the T cells (responder cell) in mixed lymphocyte culture reaction ([3]; in vitro, result in words): have an activity to inhibit the reaction of proliferation of the T cells
- Inhibition rate (DTH footpad thickness) ([1]; 2.0 mg/mouse): 25.7%
- IC50 (Mouse leukemia L-1210): 3.6 µg/mL (≈ 7.7 µM)
- antibacterial activity to Gram-positive bacteria (Gram-positive bacteria): antibacterial activity to Gram-positive bacteria
- Solubility (Solubility; various solvents): Soluble in methanol, ethyl acetate and chloroform but slightly soluble or insoluble in n-hexane and water
- Solubility in water (Solubility; water): barely soluble in water
- absorption into the digestive tracts / oral absorption [4]: hardly absorbed into the digestive tracts
